Test systems include HCT-15 colon; HOP-92 NSCLC; IGROV1 ovarian; LOX IMVI melanoma; NCI-H460 lung; OVCAR-3 ovarian; OVCAR-8 ovarian; PC-3 prostate; SK-MEL-2 melanoma; SK-MEL-5 melanoma.
Common to all, as to assay: DTP human tumour cell line panel, 48 h

The structures appear in SMILES notation. Values joined by “and” are separate entries in the source; they are usually repeats but may differ in a detail not shown here. Identical values can stand only once.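 Each compound was tested at five concentrations against cells in 96-well plates for 48 hours. GI50 = concentration required for 50% inhibition of growth. TGI: concentration producing complete growth inhibition.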

As to `CC(C)=CC1C(COC(=O)c2ccccc2Cl)C1(C)C` (centres undefined), the TGI was 75.4 µM in the test with HCT-15 colon; 86.3 µM in the test with HOP-92 NSCLC; 57.6 µM in the test with IGROV1 ovarian; 38.9 µM in the test with LOX IMVI melanoma; more than 100 µM in the test with NCI-H460 lung; 75.8 µM in the test with OVCAR-3 ovarian. In addition, the TGI in the test with OVCAR-8 ovarian is more than 100 µM; with PC-3 prostate it was more than 100 µM; with SK-MEL-2 melanoma it was more than 100 µM; in the test with SK-MEL-5 melanoma, 65.3 µM.
For the compound `CCN(CC)CCCC(C)Nc1c2ccc(Cl)cc2nc2cc(Cl)ccc12` (centres undefined), the TGI in the test on HCT-15 colon was 9.85 µM; with HOP-92 NSCLC, 9.64 µM; with IGROV1 ovarian, 19.5 µM; in the test with LOX IMVI melanoma, 6.94 µM; with NCI-H460 lung it was 12 µM; in the test on OVCAR-3 ovarian, 13.4 µM. For the same compound, the TGI with OVCAR-8 ovarian stood at 19.3 µM; in the test with SK-MEL-2 melanoma it was 29.2 µM; with SK-MEL-5 melanoma it was 10 µM.
Regarding `CSC1=C(SC)C(=O)c2cn(C)c(=O)cc2C1=O`, the TGI in the test on HCT-15 colon is 4.78 µM; with HOP-92 NSCLC, 2.12 µM; in the test on IGROV1 ovarian, 25.4 µM; in the test with LOX IMVI melanoma, 3.91 µM; in the test with NCI-H460 lung, 32 µM; with OVCAR-3 ovarian, 3.54 µM. The TGI with OVCAR-8 ovarian is more than 70.9 µM; in the test on PC-3 prostate it was 26.2 µM; in the test on SK-MEL-2 melanoma, 17.1 µM; in the test on SK-MEL-5 melanoma, 3.15 µM.
As to `O=S(=O)(Nc1nccs1)c1ccc([As](=O)(O)O)cc1`, the concentration for total growth inhibition (TGI) with HCT-15 colon, in the test with HOP-92 NSCLC, in the test on IGROV1 ovarian, in the test with LOX IMVI melanoma, in the test on NCI-H460 lung and in the test with OVCAR-3 ovarian was more than 100 µM in each case. Besides, the concentration for total growth inhibition (TGI) in the test with OVCAR-8 ovarian, with PC-3 prostate, in the test on SK-MEL-2 melanoma and with SK-MEL-5 melanoma was more than 100 µM each time.
Turning to `CC(C)C(=O)Nc1ccc(-c2nc(-c3cccc(OCCN4CCOCC4)c3)c(-c3ccnc(Br)c3)[nH]2)cc1`, the GI50 with HCT-15 colon was 2.02 µM; in the test on HOP-92 NSCLC, 2.32 µM; in the test on IGROV1 ovarian it was 3.75 µM; in the test on LOX IMVI melanoma it was 1.7 µM; with NCI-H460 lung it was 3.98 µM; in the test with OVCAR-3 ovarian, 4.24 µM. Besides, the GI50 in the test with OVCAR-8 ovarian was 4.16 µM; with PC-3 prostate, 3.08 µM; in the test with SK-MEL-2 melanoma, 2.21 µM; in the test on SK-MEL-5 melanoma it was 1.79 µM. In addition, the TGI in the test on HCT-15 colon is 4.67 µM; with HOP-92 NSCLC it was 7.68 µM; with IGROV1 ovarian, more than 100 µM; in the test on LOX IMVI melanoma, 3.57 µM; with NCI-H460 lung, 25.4 µM; with OVCAR-3 ovarian, more than 100 µM. Besides, the concentration for total growth inhibition (TGI) with OVCAR-8 ovarian was more than 100 µM; in the test with PC-3 prostate it was 14.5 µM; in the test with SK-MEL-2 melanoma, 5.54 µM; in the test on SK-MEL-5 melanoma it was 3.25 µM.
Turning to `COc1ccc(N2C(=O)C(=O)N(C)C2=O)c2ccccc12`, the TGI in the test with HCT-15 colon, in the test with IGROV1 ovarian, in the test on LOX IMVI melanoma, in the test with NCI-H460 lung, in the test with OVCAR-3 ovarian and with OVCAR-8 ovarian was more than 10 µM each time. In addition, the TGI with PC-3 prostate, in the test with SK-MEL-2 melanoma and in the test with SK-MEL-5 melanoma was more than 10 µM throughout.
Consider `CC(C(=O)NCCNC(=O)CCCC(=O)N(C)O)C(=O)NCCNC(=O)CCCC(=O)N(C)O`, for which the TGI in the test on HCT-15 colon, in the test with HOP-92 NSCLC, in the test on IGROV1 ovarian, with LOX IMVI melanoma, in the test with NCI-H460 lung and in the test on OVCAR-3 ovarian was more than 100 µM each time. For the same compound, the total growth inhibition concentration (TGI) with OVCAR-8 ovarian, in the test with PC-3 prostate, in the test on SK-MEL-2 melanoma and in the test with SK-MEL-5 melanoma was more than 100 µM each time.
As for `CC(=O)Nc1c2sscc-2n(C)c1=O`, the TGI in the test with HCT-15 colon was found to be 2.66 µM; with HOP-92 NSCLC it was 3.7 µM; in the test on IGROV1 ovarian, 4.65 µM; in the test on LOX IMVI melanoma, 3.39 µM; in the test with NCI-H460 lung it was 1.32 µM; with OVCAR-3 ovarian, 3.3 µM. Besides, the concentration for total growth inhibition (TGI) in the test with OVCAR-8 ovarian was determined as 1.36 µM; in the test with PC-3 prostate, 2.97 µM; with SK-MEL-2 melanoma it was 3.36 µM; with SK-MEL-5 melanoma, 3.38 µM.
In the case of `CC[C@@]1(O)C(=O)OCc2c1cc1n(c2=O)Cc2cc3c(CN(C)C)c(O)ccc3nc2-1`, the concentration for 50% growth inhibition (GI50) was 0.304 µM and 0.0813 µM and 0.67 µM with HCT-15 colon; 0.231 µM and 0.116 µM and 0.392 µM with IGROV1 ovarian; < 0.01 µM and 0.00456 µM and 0.021 µM in the test with NCI-H460 lung; 0.107 µM and 0.124 µM and 0.551 µM in the test with OVCAR-3 ovarian; 0.0425 µM and 0.26 µM in the test with PC-3 prostate; 0.0197 µM and 0.0191 µM and 0.0448 µM in the test on SK-MEL-5 melanoma. For the same compound, the TGI with LOX IMVI melanoma was 362 nM [middle of 4 runs]; in the test on NCI-H460 lung, 0.499 µM and 1.58 µM and 0.222 µM; with OVCAR-3 ovarian, 1.37 µM and 7.71 µM and 2.12 µM; with PC-3 prostate, > 90.1 µM and 14.8 µM and 35 µM.
For the compound `COC1=CC(=O)c2c(c(COC(C)=O)cn2C)C1=O`, the TGI in the test on HCT-15 colon came out at 0.0522 µM; in the test with HOP-92 NSCLC, 0.822 µM; with IGROV1 ovarian, 0.443 µM; in the test with LOX IMVI melanoma, 0.431 µM; in the test on NCI-H460 lung, 0.835 µM; with OVCAR-3 ovarian, 0.395 µM. For the same compound, the concentration for total growth inhibition (TGI) was 0.313 µM in the test with OVCAR-8 ovarian, 1.35 µM in the test on PC-3 prostate, 0.373 µM in the test with SK-MEL-2 melanoma and 0.39 µM in the test with SK-MEL-5 melanoma.
For `OC(c1ccccc1)C1CC2C=CC1C2` (centres undefined), the TGI in the test on HCT-15 colon, in the test on HOP-92 NSCLC, in the test with IGROV1 ovarian, in the test on LOX IMVI melanoma, in the test on NCI-H460 lung and in the test on OVCAR-3 ovarian was more than 100 µM throughout. Besides, the TGI in the test with OVCAR-8 ovarian, with SK-MEL-2 melanoma and in the test on SK-MEL-5 melanoma was more than 100 µM in each case.
With `CC1(CO)C(O)CCC2(C)C1C(O)CC1CC3CC12CCC3(O)CO` (centres undefined), the total growth inhibition concentration (TGI) in the test with HCT-15 colon, in the test with HOP-92 NSCLC, in the test with IGROV1 ovarian, with LOX IMVI melanoma, in the test on NCI-H460 lung and with OVCAR-3 ovarian was more than 225 µM each time. In addition, the TGI in the test on OVCAR-8 ovarian, with SK-MEL-2 melanoma and in the test on SK-MEL-5 melanoma was more than 225 µM each time.
With `O=[N+]([O-])c1ccc(Cc2nc3cc4ccccc4cc3[nH]2)cc1C(F)(F)F`, the TGI is more than 100 µM with HCT-15 colon; 41.1 µM in the test with HOP-92 NSCLC; more than 100 µM with LOX IMVI melanoma; 38.5 µM with NCI-H460 lung; 26 µM in the test on OVCAR-3 ovarian; 48.5 µM in the test with OVCAR-8 ovarian. Further, the concentration for total growth inhibition (TGI) was more than 100 µM with PC-3 prostate, 44.4 µM in the test with SK-MEL-2 melanoma and 25.1 µM in the test on SK-MEL-5 melanoma.
Consider `O=[N+]([O-])c1ccc(NNN=Nc2ccc(-c3nc4ccccc4[nH]3)cc2)c([N+](=O)[O-])c1`, for which the TGI in the test on HCT-15 colon, with HOP-92 NSCLC, with IGROV1 ovarian, in the test with LOX IMVI melanoma, with NCI-H460 lung and with OVCAR-3 ovarian was more than 100 µM in each case. In addition, the TGI was more than 100 µM in the test on OVCAR-8 ovarian, more than 100 µM with PC-3 prostate, 88.6 µM in the test on SK-MEL-2 melanoma and 87.5 µM in the test with SK-MEL-5 melanoma.
With `O=c1ccc2c(Cl)cccc2o1`, the TGI with HOP-92 NSCLC, in the test with IGROV1 ovarian, with LOX IMVI melanoma, in the test on NCI-H460 lung, with OVCAR-3 ovarian and with OVCAR-8 ovarian was more than 100 µM in each case. The TGI in the test with PC-3 prostate, in the test with SK-MEL-2 melanoma and with SK-MEL-5 melanoma was more than 100 µM each time.
Regarding `CN(CC(=O)O)CC(=O)O`, the TGI with HCT-15 colon, with HOP-92 NSCLC, in the test on IGROV1 ovarian, in the test with LOX IMVI melanoma, in the test with NCI-H460 lung and with OVCAR-3 ovarian was more than 100 µM throughout. The TGI with OVCAR-8 ovarian, with PC-3 prostate, with SK-MEL-2 melanoma and in the test on SK-MEL-5 melanoma was more than 100 µM each time.
`Clc1ccc(OCc2nnc3sc(SSc4nn5c(COc6ccc(Cl)cc6)nnc5s4)nn23)cc1`: the values for the GI50 in the test on HCT-15 colon, with HOP-92 NSCLC and in the test with OVCAR-3 ovarian were 86.2 µM, 18.2 µM and 35.3 µM, respectively. Further, the total growth inhibition concentration (TGI) is more than 100 µM in the test on HCT-15 colon; more than 100 µM in the test with HOP-92 NSCLC; more than 100 µM with IGROV1 ovarian; more than 100 µM with LOX IMVI melanoma; more than 100 µM in the test on NCI-H460 lung; 80.4 µM in the test with OVCAR-3 ovarian. Further, the TGI in the test on OVCAR-8 ovarian, in the test with SK-MEL-2 melanoma and in the test with SK-MEL-5 melanoma was more than 100 µM in each case.
Consider `Fc1ccc(Nc2ncc(-c3cc(F)c(Cl)cc3Cl)s2)cc1Cl`, for which the GI50 with HCT-15 colon was 3.44 µM; in the test with HOP-92 NSCLC it was 1.47 µM; in the test on IGROV1 ovarian it was 26.2 µM; in the test with LOX IMVI melanoma, 9.08 µM; with NCI-H460 lung, 2.98 µM; with OVCAR-3 ovarian, 10.5 µM. For the same compound, the GI50 with OVCAR-8 ovarian is 20.1 µM; in the test on PC-3 prostate, 14 µM; with SK-MEL-2 melanoma, 22.8 µM; in the test with SK-MEL-5 melanoma, 12.3 µM. The concentration for total growth inhibition (TGI) in the test on HCT-15 colon is more than 100 µM; in the test on HOP-92 NSCLC, 13.3 µM; with IGROV1 ovarian, more than 100 µM; with LOX IMVI melanoma it was 96 µM; in the test with NCI-H460 lung, 9.61 µM; in the test with OVCAR-3 ovarian it was 23.9 µM. Moreover, the total growth inhibition concentration (TGI) is 64.2 µM in the test on OVCAR-8 ovarian, 27.7 µM with PC-3 prostate, 57.9 µM in the test on SK-MEL-2 melanoma and 25.9 µM in the test with SK-MEL-5 melanoma.
Turning to `C1=Nc2ccccc2Cn2nncc21`, the TGI in the test with HCT-15 colon, in the test with HOP-92 NSCLC, in the test on IGROV1 ovarian, in the test with LOX IMVI melanoma, in the test with NCI-H460 lung and with OVCAR-3 ovarian was more than 100 µM in each case. In addition, the total growth inhibition concentration (TGI) in the test with OVCAR-8 ovarian and in the test with SK-MEL-2 melanoma was more than 100 µM throughout.

(Values after PubChem BioAssay (NCI).)
